# What was measured:
# [1] = Half-lives of 14C-labelled GA compounds in soil; settings: spinks soil, aerobic, 25° C., darkness; read-out: Half-life (days) in soil (converted)
# Experimental: Metabolic studies in soil are conducted with ^14C-labelled GA compounds in order to investigate the route and rate of compound degradation in soil under aerobic conditions. ^14C-labelled GA compounds are obtained from Lew Mander (Australian National University). The ^14C-labelled compounds dissolved in 0.2-2 ml water:ethanol, 80:20, v/v, are applied to 50-60 gm portions of spinks soil (USDA classification Loamy Sand: 82% sand, 14% silt, and 4% clay) in 250 ml centrifuge bottles at a rate of 0.1-0.2 ppm (6-12 μg; approximately 1,200,000 dpm per soil sample. The soil samples are placed in a glass dessicator which served as a container for all soil bottles. The glass dessicator is connected to three separate trapping solutions in series, each containing 20 ml of ethylene glycol:ethanolamine, 2:1, v/v. Air is pulled into the glass dessicator and through the trapping solutions by house vacuum. The trapping solutions are used to collect ^14C-volatiles and ^14C-CO2. Soil samples are incubated for eight days at 25° C. in darkness. For most experiments, duplicate soil samples are harvested 0, 6, 12, 24, 46, 72, 120, and 192 hours after initial treatment. Soil samples are extracted twice with 100 ml of water:methanol, 20:80, v/v, and the combined extracts are analyzed by HPLC under the same conditions as described for the determination of half-lives of GA compounds in planta, above.
# [2] = tested on: wild-type soybean variety A4922; assay: GA3 seed treatment, soybean stand count and yield in the field; format: in vivo, Glycine max
# Excerpt: Treated seed is planted about 1 inch deep in previously disced soil using a cone planter. The rows are about 30 inches (76.2 cm) apart, and 15 feet (457.2 cm) long. Seeds are spaced about 3 inches (7.62 cm) apart within the rows. The emerged plants are counted periodically, and seed yields are obtained at harvest. The plant counts and yields are converted to a per acre basis. […] The decrease in plant population per acre is due to lack of emergence, in part due to broken and unhooked hypocotyls. In addition, some of the emerged plants are abnormal, e.g., with small, broken cotyledons, etc.
# [3] = tested on: wild-type (A3237) soybean; assay: Hilum treatment with GA15, GA19, GA24, GA44, hypocotyl length, wild-type soybean; settings: 10 μg/seed, 5 DAP
# Experimental: The purpose of this experiment is to evaluate potential gibberellin rescue agents occurring at an intermediate or middle portion of the gibberellin biosynthesis pathway (between GA53/GA12 and GA20/GA9) as seed treatments. These GA compounds are tested using hilum treatment and comparing activity on GA-deficient soybean plants and normal (wild-type) plants.
# Wild-type A3237 soybeans are obtained from Asgrow Seed Company. Transgenic seeds are fifth generation (R5) line 719 seeds.
# The GA compounds are dissolved in absolute ethanol at a concentration of approximately 10 μg/ml. Compounds are applied to the hilum of dry soybean seed as 1 μl drops. Seeds are sown in 4-inch plastic pots (2 pots per treatment; 5 seeds/pot) containing commercial potting soil (Metromix 200) placed in a greenhouse set for 12 hr light, and day and night temperatures of 85° F. (29° C.) and 75° F. (24° C.), respectively. After all treatments are emerged (5 DAP), hypocotyl length is measured.
# [4] = tested on: pMON29801 soybean lines 719 and 724; assay: GA3 soil drench, emergence and shoot length of FMV/asCPScc soybean; format: in vivo, Glycine max; settings: for Plant height (cm): +3 × 10^−6 M GA3 soil drench, 7 days after planting
# Excerpt: Thirty-five soybean plants are produced by transformation with pMON29801 (FIG. 7) containing the antisense CPS conserved core (asCPScc) gene driven by constitutive FMV promoter. The seed (R1) from the initial R0 transgenic lines is collected. R1 seeds are sown in 4-inch pots filled with commercial potting soil (Metromix 350) that is saturated with water or GA3 at a rate of either 3×10^−6 or 10^−5 M. Typically, 20 seeds are sown in 10 pots for each treatment, except where the seed supply is limiting. Pots are incubated in a greenhouse routinely used for soybean growth. Emergence is scored versus days after planting (DAP). Two soybean lines, 724 and 720, show a delayed emergence phenotype. Line 724 emergence is 1 to 2 days later than the control.
# (§1) The timing of emergence and plant stature at for transgenic (plasmid pMON29801, FMV/asCPScc) soybean line 724 is rescued by sowing seeds in soil saturated with 3×10^−6 M GA3. At 7 days after planting (DAP), the GA3 treatment to the seeds rescued plant stature to within 10% of the A3237 control. As an additional control, soybean (A3237) seeds are coated with different concentrations of a commercial formulation of GA3 (Release®) blended with talc and sown in sand saturated with 3 mg/L ancymidol and grown in a greenhouse. Plant height is measured at 6 DAP. […] This rate is equivalent to approximately 62 mg GA3 per acre (assuming 140,000 seeds/acre).
# GA3 added to plasmid pMON29801 transgenic soybean seeds as a soil drench also restores soybean emergence timing and plant height during early seedling growth. Rates of GA3 between 1×10^−6 and 1×10^−5 M, when added to soil either immediately before planting or immediately after, restores normal shoot length in emerged Line #719 seedlings (Table 5).
# [5] = tested on: asCPScc soybean lines 696, 719, 720 and 724; assay: Seed yield of asCPScc soybean lines treated with GA3; format: in vivo, Glycine max
# Experimental: One hundred nine soybean plants from four […] lines (696, 719, 720 and 724) identified with GA-deficient phenotypes are grown to maturity and the seed harvested. Three of the lines (696, 719 and 720) required weekly spraying with GA3 to restore normal vegetative growth. […] Seed yield, seed weight per seed, pod number and seeds/pod data are collected for each plant. Data is collected in three groups for each line: plants that are wild-type; plants that are dwarfs and received no exogenous GA; and plants that are treated with exogenous GA3. […] Line 724 dwarf plants produces equivalent yields to the wild-type plants within this line without any external spraying. […] Line 724 has no reduction in seed weight in dwarfs without supplying exogenous GA.
# [6] = tested on: soybean (A3237) in sand saturated with 3 mg/L ancymidol; assay: GA3 seed coating, reversal of ancymidol inhibition of soybean stature; format: in vivo, Glycine max; settings: 3 mg GA3/kg seed (Release blended with talc); plant height at 6 DAP
# Experimental: as §1
# [7] = tested on: R1 lines from pMON29220 (P-ICL/canola antisense CPS); assay: Emergence of R1 canola seed (pMON29220) with exogenous GA3; format: in vivo, Brassica napus; settings: GA3 10^−5 M to the seed or soil; lines with 2 day delay in emergence
# Excerpt: Seeds are produced from plants transformed with plasmid pMON29220 (P-ICL/canola antisense CPS). These are planted and analyzed for germination phenotype. A 2 day delay in emergence is observed for 58% of the R1 lines tested from pMON29220.
# [8] = tested on: ancymidol-treated soybean; assay: GA3 soil drench restoring seedling height in ancymidol-treated soybean; format: in vivo, Glycine max
# Excerpt: For example, in side-by-side comparisons using soybean, the same dose of GA3 gives substantial differences in hypocotyl elongation depending on the method of application. The relative sensitivity can be: soil drench>hilum treatment>seed imbibition). Also, the dose of GA3, applied as a soil drench, that is needed to fully restore normal seedling height in ancymidol-treated soybean increases with time after planting (10^−7M at 4 DAP; greater than 10^−5 M at 11 DAP).
smiles,measurement,setting,value
"C=C1C[C@]23C[C@@]1(O)CC[C@H]2[C@@]12C=C[C@H](O)[C@@](C)(C(=O)O1)[C@H]2[C@@H]3C(=O)O [GA3, gibberellic acid]",half-life,[1],0.5 days
same,Plants per Acre,[2]; 5 ppm GA3 seed treatment,"41,458"
same,Yield (bushels/acre),[2]; 5 ppm GA3 seed treatment,41.6 bushels/acre
same,Plants per Acre,[2]; 10 ppm GA3 seed treatment,"35,133"
same,Yield (bushels/acre),[2]; 10 ppm GA3 seed treatment,31.9 bushels/acre
same,Plants per Acre,[2]; 15 ppm GA3 seed treatment,"30,566"
same,Yield (bushels/acre),[2]; 15 ppm GA3 seed treatment,31.4 bushels/acre
same,hypocotyl elongation of wild-type (A3237) soybean (FIG. 41),[3],overelongation of A3237 hypocotyls
same,Plant height (cm),[4]; R1 line 719,11.3 (1.0) cm
same,Plant height (cm),[4]; R1 line 724,10.9 (0.9) cm
same,"plant stature, difference from the A3237 control","[4]; line 724, soil saturated with 3×10^−6 M GA3, 7 DAP",≤ 10%
same,reduction of seed weight per seed,"[5]; dwarf plants, GA treatments",nearly completely rescued
same,"seed yield restored, % of the yield of the wild-types","[5]; dwarfs treated continuously with GA3, lines 696 and 719",70%
same,reversal of ancymidol inhibition of soybean stature,[6],Good reversal of ancymidol inhibition of soybean stature
same,emergence delay,[7],rescuing the emergence delay
same,dose of GA3 needed to fully restore normal seedling height,[8]; 4 DAP,10^−7 M
same,dose of GA3 needed to fully restore normal seedling height,[8]; 11 DAP,greater than 10^−5 M
